Target: T1, NBS mutant NALP1 (Homo sapiens, UniProt Q9C000, G339E/K340A)
T1 construct: to generate full-length NALP1 in frame with EGFP; expressed in transfected cells; host or cells: HeLa cells, transient transfection; S-100 extract used
T1 sequence (Q9C000 1-1473 G339E/K340A): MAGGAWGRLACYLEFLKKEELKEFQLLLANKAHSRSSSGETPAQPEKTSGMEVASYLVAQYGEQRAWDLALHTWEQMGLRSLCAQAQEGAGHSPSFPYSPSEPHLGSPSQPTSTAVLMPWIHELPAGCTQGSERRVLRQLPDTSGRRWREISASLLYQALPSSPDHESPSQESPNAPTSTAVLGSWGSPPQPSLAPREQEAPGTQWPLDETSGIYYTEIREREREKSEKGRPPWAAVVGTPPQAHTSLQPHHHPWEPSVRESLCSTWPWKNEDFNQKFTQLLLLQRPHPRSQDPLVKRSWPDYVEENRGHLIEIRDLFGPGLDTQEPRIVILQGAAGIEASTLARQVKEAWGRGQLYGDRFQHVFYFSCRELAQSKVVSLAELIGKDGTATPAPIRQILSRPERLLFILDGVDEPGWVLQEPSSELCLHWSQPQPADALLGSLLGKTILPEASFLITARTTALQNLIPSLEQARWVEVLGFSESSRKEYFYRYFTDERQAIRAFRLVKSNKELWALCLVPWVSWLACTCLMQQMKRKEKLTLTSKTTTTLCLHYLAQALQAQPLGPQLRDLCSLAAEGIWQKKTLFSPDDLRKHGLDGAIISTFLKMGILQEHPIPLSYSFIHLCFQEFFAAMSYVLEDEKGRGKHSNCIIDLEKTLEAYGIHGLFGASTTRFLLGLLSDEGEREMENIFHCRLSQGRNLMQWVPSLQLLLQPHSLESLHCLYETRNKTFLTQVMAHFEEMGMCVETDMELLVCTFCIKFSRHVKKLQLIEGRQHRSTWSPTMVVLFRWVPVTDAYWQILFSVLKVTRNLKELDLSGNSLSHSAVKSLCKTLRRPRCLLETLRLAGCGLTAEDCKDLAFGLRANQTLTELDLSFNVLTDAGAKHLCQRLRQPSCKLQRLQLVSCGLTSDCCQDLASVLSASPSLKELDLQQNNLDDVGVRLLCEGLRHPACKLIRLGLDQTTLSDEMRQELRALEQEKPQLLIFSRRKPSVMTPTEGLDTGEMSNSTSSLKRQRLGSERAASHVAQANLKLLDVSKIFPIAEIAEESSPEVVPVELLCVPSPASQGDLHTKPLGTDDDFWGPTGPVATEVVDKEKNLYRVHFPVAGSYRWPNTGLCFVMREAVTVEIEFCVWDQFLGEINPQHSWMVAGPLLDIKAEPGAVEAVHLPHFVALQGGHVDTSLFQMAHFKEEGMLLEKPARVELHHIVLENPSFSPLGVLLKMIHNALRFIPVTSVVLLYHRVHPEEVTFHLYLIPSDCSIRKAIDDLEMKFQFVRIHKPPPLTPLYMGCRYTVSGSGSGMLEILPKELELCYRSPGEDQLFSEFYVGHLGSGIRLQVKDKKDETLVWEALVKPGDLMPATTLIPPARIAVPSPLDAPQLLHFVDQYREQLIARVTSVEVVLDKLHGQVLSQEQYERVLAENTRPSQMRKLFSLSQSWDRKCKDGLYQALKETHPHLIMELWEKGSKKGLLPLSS
Test: Fluorimetric DEVDase (caspase-3) assay in HeLa cell extracts expressing NBS mutant NALP1-EGFP
Assay type: biochemical
Conditions: 2 mM dATP, 2 mM MgCl2, 1 hour, Ac-DEVD-AMC substrate
Protocol: Cell extract preparation and fluorimetric assay of caspase activity. Preparation of cell extracts, dATP incubation and caspase-3 activities assays were performed as described by Liu et al. (1996). Briefly, HeLa cells were grown in DMEM, 10% FBS. Cells were plated in T175 flasks to 60% confluence. Control vector pEGFP or wild-type or NBS mutant NALP1-EGFP expression plasmids were transfected into HeLa cells using Lipofectamine Plus. Cells were collected in homogenization buffer (20 mM HEPES pH 7.5, 10 mM KCl, 1 mM sodium EDTA, […], 1 mM sodium EGTA, 0.1% CHAPS, 1 mM DTT, 0.1 mM PMSF and protease inhibitor cocktail tablets (Roche)), 24 hours after transfection. Cells were chilled on ice for 15 minutes and homogenized by douncing 30 times in a glass douncer. Samples were centrifuged at 1000×g for 10 minutes at 4° C. […] After 2 hours incubation, liberation of AMC (7-amino-4-methylcoumarin) from the substrate was monitored using excitation/emission wavelength pairs (λex/λem) of 380/460 nm using a SpectraFluor Plus instrument (Tecan). Triplicate samples were evaluated with or without specific inhibitors. […] Normalized data from multiple experiments were expressed as means±standard deviation. For each experiment, the expression of EGFP-tagged NALP1 proteins was analyzed by anti-GFP immunoblot and quantified by densitometry.

Nc1ncnc2c1ncn2[C@H]1C[C@H](O)[C@@H](COP(=O)(O)OP(=O)(O)OP(=O)(O)O)O1 [dATP]
DEVDase activity, extracts with NBS mutant NALP1: did not respond

Source: patent US20040248775A1, “Methods for screening inhibitors of apoptosis” (Wyeth, priority 2003, published 2004)
